From PubChem BioAssay (NCI)
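Grown in 96-well plates, cells were treated for 48 hours with each compound at five concentrations. Insufficient inhibition: endpoint recorded as highest concentration tested. GI50 is the concentration that inhibits growth by half. TGI: total growth inhibition.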

Experiments:
Experiment in all cases: DTP human tumour cell line panel, 48 h
MDA-MB-435 = test system: MDA-MB-435
KM12 colon = test system: KM12 colon
T-47D breast = test system: T-47D breast
M14 melanoma = test system: M14 melanoma
PC-3 prostate = test system: PC-3 prostate
HT29 colon = test system: HT29 colon
SF-295 CNS = test system: SF-295 CNS
NCI-H460 lung = test system: NCI-H460 lung
SK-MEL-2 melanoma = test system: SK-MEL-2 melanoma
MOLT-4 leukemia = test system: MOLT-4 leukemia
SK-MEL-28 melanoma = test system: SK-MEL-28 melanoma
MCF7 breast = test system: MCF7 breast
786-0 renal = test system: 786-0 renal
NCI-H226 lung = test system: NCI-H226 lung
SN12C renal = test system: SN12C renal
HCT-116 colon = test system: HCT-116 colon
A498 renal = test system: A498 renal
SF-268 CNS = test system: SF-268 CNS
OVCAR-3 ovarian = test system: OVCAR-3 ovarian
LOX IMVI melanoma = test system: LOX IMVI melanoma
HCC-2998 colon = test system: HCC-2998 colon
TK-10 renal = test system: TK-10 renal
DU-145 prostate = test system: DU-145 prostate
MDA-MB-231 breast = test system: MDA-MB-231 breast
SK-OV-3 ovarian = test system: SK-OV-3 ovarian
SNB-19 CNS = test system: SNB-19 CNS
SR leukemia = test system: SR leukemia
CAKI-1 renal = test system: CAKI-1 renal
HOP-92 NSCLC = test system: HOP-92 NSCLC
A549 NSCLC = test system: A549 NSCLC
UACC-62 melanoma = test system: UACC-62 melanoma
ACHN renal = test system: ACHN renal
OVCAR-5 ovarian = test system: OVCAR-5 ovarian
HL-60(TB) leukemia = test system: HL-60(TB) leukemia
HS 578T breast = test system: HS 578T breast
UACC-257 melanoma = test system: UACC-257 melanoma
SW-620 colon = test system: SW-620 colon
SNB-75 CNS = test system: SNB-75 CNS
RXF 393 renal = test system: RXF 393 renal
CCRF-CEM leukemia = test system: CCRF-CEM leukemia
OVCAR-4 ovarian = test system: OVCAR-4 ovarian
K-562 leukemia = test system: K-562 leukemia
HOP-62 NSCLC = test system: HOP-62 NSCLC
SK-MEL-5 melanoma = test system: SK-MEL-5 melanoma
COLO 205 colon = test system: COLO 205 colon
NCI-H522 lung = test system: NCI-H522 lung
HCT-15 colon = test system: HCT-15 colon
RPMI-8226 leukemia = test system: RPMI-8226 leukemia
SF-539 CNS = test system: SF-539 CNS
NCI-H23 lung = test system: NCI-H23 lung
MALME-3M melanoma = test system: MALME-3M melanoma
OVCAR-8 ovarian = test system: OVCAR-8 ovarian
NCI/ADR-RES ovarian = test system: NCI/ADR-RES ovarian
IGROV1 ovarian = test system: IGROV1 ovarian
BT-549 breast = test system: BT-549 breast
U251 CNS = test system: U251 CNS
UO-31 renal = test system: UO-31 renal

`Cn1cc(C2=C(Sc3ccccc3)C(=O)NC2=O)c2ccccc21` showed a GI50 (MDA-MB-435) of 10 µM, a TGI (MDA-MB-435) greater than 25 µM and a GI50 (KM12 colon) greater than 25 µM. The TGI (KM12 colon) was greater than 25 µM, the GI50 (T-47D breast) was 7.56 µM and the TGI (T-47D breast) was greater than 17.2 µM. The GI50 (M14 melanoma) was 24.2 µM, the TGI (M14 melanoma) was greater than 25 µM and the GI50 (PC-3 prostate) was greater than 25 µM. The TGI (PC-3 prostate) was greater than 25 µM, the GI50 (HT29 colon) was greater than 18.7 µM and the TGI (HT29 colon) was greater than 25 µM. The GI50 (SF-295 CNS) was greater than 25 µM, the TGI (SF-295 CNS) was greater than 25 µM and the GI50 (NCI-H460 lung) was greater than 25 µM. For the same molecule, the TGI (NCI-H460 lung) was greater than 25 µM, the GI50 (SK-MEL-2 melanoma) was greater than 13.6 µM and the TGI (SK-MEL-2 melanoma) was greater than 21.8 µM. For the same molecule, the GI50 (MOLT-4 leukemia) was 7.9 µM, the TGI (MOLT-4 leukemia) was greater than 25 µM and the GI50 (SK-MEL-28 melanoma) was greater than 12.8 µM. For the same molecule, the TGI (SK-MEL-28 melanoma) was greater than 22.7 µM, the GI50 (MCF7 breast) was 7.83 µM and the TGI (MCF7 breast) was greater than 20.6 µM. It also gave a GI50 (786-0 renal) greater than 16.4 µM, a TGI (786-0 renal) greater than 25 µM and a GI50 (NCI-H226 lung) greater than 25 µM. It also gave a TGI (NCI-H226 lung) greater than 25 µM, a GI50 (SN12C renal) greater than 14.9 µM and a TGI (SN12C renal) greater than 25 µM. For the same molecule, the GI50 (HCT-116 colon) was 7.41 µM, the TGI (HCT-116 colon) was greater than 16.9 µM and the GI50 (A498 renal) was greater than 23.1 µM. It also gave a TGI (A498 renal) greater than 25 µM, a GI50 (SF-268 CNS) greater than 15.2 µM and a TGI (SF-268 CNS) greater than 25 µM. The GI50 (OVCAR-3 ovarian) was 9.57 µM, the TGI (OVCAR-3 ovarian) was greater than 22.5 µM and the GI50 (LOX IMVI melanoma) was 4.7 µM. For the same molecule, the TGI (LOX IMVI melanoma) was 10.2 µM, the GI50 (HCC-2998 colon) was greater than 12.3 µM and the TGI (HCC-2998 colon) was greater than 18.2 µM. It also gave a GI50 (TK-10 renal) greater than 13.6 µM, a TGI (TK-10 renal) greater than 20.4 µM and a GI50 (DU-145 prostate) of 13.8 µM. The TGI (DU-145 prostate) was greater than 25 µM, the GI50 (MDA-MB-231 breast) was 12.1 µM and the TGI (MDA-MB-231 breast) was greater than 25 µM. For the same molecule, the GI50 (SK-OV-3 ovarian) was greater than 25 µM, the TGI (SK-OV-3 ovarian) was greater than 25 µM and the GI50 (SNB-19 CNS) was greater than 25 µM. The TGI (SNB-19 CNS) was greater than 25 µM, the GI50 (SR leukemia) was 9.81 µM and the TGI (SR leukemia) was greater than 25 µM. The GI50 (CAKI-1 renal) was greater than 18.1 µM, the TGI (CAKI-1 renal) was greater than 25 µM and the GI50 (HOP-92 NSCLC) was 24.5 µM. For the same molecule, the TGI (HOP-92 NSCLC) was greater than 25 µM, the GI50 (A549 NSCLC) was greater than 22.4 µM and the TGI (A549 NSCLC) was greater than 25 µM. For the same molecule, the GI50 (UACC-62 melanoma) was greater than 13.7 µM, the TGI (UACC-62 melanoma) was greater than 25 µM and the GI50 (ACHN renal) was 6.23 µM. For the same molecule, the TGI (ACHN renal) was greater than 17.3 µM, the GI50 (OVCAR-5 ovarian) was greater than 25 µM and the TGI (OVCAR-5 ovarian) was greater than 25 µM. For the same molecule, the GI50 (HL-60(TB) leukemia) was 8.4 µM, the TGI (HL-60(TB) leukemia) was 23.5 µM and the GI50 (HS 578T breast) was greater than 18.2 µM. The TGI (HS 578T breast) was greater than 25 µM, the GI50 (UACC-257 melanoma) was greater than 12 µM and the TGI (UACC-257 melanoma) was greater than 21.2 µM. It also gave a GI50 (SW-620 colon) of 9.69 µM, a TGI (SW-620 colon) greater than 16.5 µM and a GI50 (SNB-75 CNS) greater than 25 µM. It also gave a TGI (SNB-75 CNS) greater than 25 µM, a GI50 (RXF 393 renal) of 7.2 µM and a TGI (RXF 393 renal) greater than 17.6 µM. It also gave a GI50 (CCRF-CEM leukemia) of 7.7 µM, a TGI (CCRF-CEM leukemia) greater than 25 µM and a GI50 (OVCAR-4 ovarian) greater than 18.3 µM. The TGI (OVCAR-4 ovarian) was greater than 25 µM, the GI50 (K-562 leukemia) was 12.9 µM and the TGI (K-562 leukemia) was greater than 25 µM. It also gave a GI50 (HOP-62 NSCLC) greater than 25 µM, a TGI (HOP-62 NSCLC) greater than 25 µM and a GI50 (SK-MEL-5 melanoma) greater than 15.1 µM. For the same molecule, the TGI (SK-MEL-5 melanoma) was greater than 25 µM, the GI50 (COLO 205 colon) was greater than 16.2 µM and the TGI (COLO 205 colon) was greater than 25 µM. For the same molecule, the GI50 (NCI-H522 lung) was 3.29 µM, the TGI (NCI-H522 lung) was 8.44 µM and the GI50 (HCT-15 colon) was 7.87 µM. It also gave a TGI (HCT-15 colon) greater than 19.1 µM, a GI50 (RPMI-8226 leukemia) of 9.19 µM and a TGI (RPMI-8226 leukemia) greater than 25 µM. It also gave a GI50 (SF-539 CNS) greater than 25 µM, a TGI (SF-539 CNS) greater than 25 µM and a GI50 (NCI-H23 lung) greater than 22.2 µM. For the same molecule, the TGI (NCI-H23 lung) was greater than 25 µM, the GI50 (MALME-3M melanoma) was greater than 13.2 µM and the TGI (MALME-3M melanoma) was greater than 20.2 µM. For the same molecule, the GI50 (OVCAR-8 ovarian) was greater than 14.2 µM, the TGI (OVCAR-8 ovarian) was greater than 25 µM and the GI50 (NCI/ADR-RES ovarian) was greater than 25 µM. For the same molecule, the TGI (NCI/ADR-RES ovarian) was greater than 25 µM, the GI50 (IGROV1 ovarian) was 10.5 µM and the TGI (IGROV1 ovarian) was greater than 25 µM. For the same molecule, the GI50 (BT-549 breast) was 9.49 µM, the TGI (BT-549 breast) was greater than 20.7 µM and the GI50 (U251 CNS) was greater than 25 µM. For the same molecule, the TGI (U251 CNS) was greater than 25 µM, the GI50 (UO-31 renal) was 8.84 µM and the TGI (UO-31 renal) was greater than 14.3 µM.
